How the values were obtained:
sheath blight of rice = conditions: as disclosed in Patent Document 2 (JP-A-2005-179234); cited from earlier work
Botrytis cinerea = assay: Test on preventive effect against kidney bean gray mold; type: in vivo; conditions: 500 ppm, spray on kidney bean (Taisyou Kintoki), 3 to 4 days after inoculation
Erysiphe graminis = conditions: 500 ppm, spray on wheat (Norin-61-go) at 1.5-leaf stage, preventive, 6 to 7 days after inoculation

| melting point [°C] | Structure (SMILES) | effect against sheath blight of rice (sheath blight of rice) | controlling index (length of lesions) (Botrytis cinerea) | controlling index (area of sporulation) (Erysiphe graminis) |
| --- | --- | --- | --- | --- |
| – | CC(C)(NC(=O)c1ccncc1F)C(=O)c1ccc(-c2ccc(OC(F)(F)F)cc2)cc1 [Comparative Compound 1, 3-fluoro-N-(2-methyl-1-oxo-1-(4′-(trifluoromethoxy)biphenyl-4-yl)propan-2-yl)isonicotinamide] | effective | 1 (Length of lesions, number of lesions or area of sporulation is at least 70% of non-treated plot) | 1 (Length of lesions, number of lesions or area of sporulation is at least 70% of non-treated plot) |
| 130 to 134 | Cc1c(C(=O)C(C)(C)NC(=O)c2ncccc2C(F)(F)F)ccc2c1OC(F)(F)O2 [compound No. 2-1, N-[2-[(2,2-difluoro-4-methyl-1,3-benzodioxolan-5-yl)carbonyl]-2-propyl]-3-trifluoromethyl-2-pyridinecarboxamide] | – | – | – |

Source: patent US20100222337A1, “FUNGICIDAL COMPOSITION CONTAINING CARBOXYLIC ACID AMIDE DERIVATIVE” (Ishihara Sangyo Kaisha, Ltd., priority 2005, published 2010)
